Among the data in patent US10882844B2, “Compounds useful as immunomodulators” (Bristol-Myers Squibb Company, priority 2016, dated 2021) are IC50 values, retold here.

This experiment deals with PD-1/PD-L1 (Homo sapiens (Human), UniProt Q9NZQ7). The experiment is described as follows: PD-1/PD-L1 Homogenous Time-Resolved Fluorescence (HTRF) binding assay. To be noted: PD-1-Ig / PD-L1-His HTRF; value given as range class; read-out: Range or IC50. From the text:
The ability of the compounds of formula (I) to bind to PD-L1 was investigated using a PD-1/PD-L1 Homogenous Time-Resolved Fluorescence (HTRF) binding assay.
Homogenous Time-Resolved Fluorescence (HTRF) binding assay.
The interaction of PD-1 and PD-L1 can be assessed using soluble, purified preparations of the extracellular domains of the two proteins. The PD-1 and PD-L1 protein extracellular domains were expressed as fusion proteins with detection tags, for PD-1, the tag was the Fc portion of Immunoglobulin (PD-1-Ig) and for PD-L1 it was the 6 histidine motif (PD-L1-His). All binding studies were performed in an HTRF assay buffer consisting of dPBS supplemented with 0.1% […] bovine serum albumin and 0.05% (v/v) Tween-20. For the h/PD-L1-His binding assay, inhibitors were pre-incubated with PD-L1-His (10 nM final) for 15 m in 4 μl of assay buffer, followed by addition of PD-1-Ig (20 nM final) in 1 μl of assay buffer and further incubation for 15 m. HTRF detection was achieved using europium crypate-labeled anti-Ig (1 nM final) and allophycocyanin (APC) labeled anti-His (20 nM final). Antibodies were diluted in HTRF detection buffer and 5 μl was dispensed on top of the binding reaction. The reaction mixture was allowed to equilibrate for 30 minutes and the resulting signal (665 nm/620 nm ratio) was obtained using an EnVision fluorometer. Additional binding assays were established between the human proteins PD-1-Ig/PD-L2-His (20 & 5 nM, respectively) and CD8O-His/PD-L1-Ig (100 & 10 nM, respectively).
Recombinant Proteins: Human PD-1 (25-167) with a C-terminal human Fc domain of immunoglobulin G (Ig) epitope tag [hPD-1 (25-167)-3S-IG] and human PD-L1 (18-239) with a C-terminal His epitope tag [hPD-L1(18-239)-TVMV-His] were expressed in HEK293T cells and purified sequentially by ProteinA affinity chromatography and size exclusion chromatography. Human PD-L2-His and CD80-His was obtained through commercial sources.
The table below lists the IC50 values for representative examples of this disclosure measured in the PD-1/PD-L1 Homogenous Time-Resolved Fluorescence (HTRF) binding assay. Ranges are as follows: A=0.18 nM-0.99 nM; B=1.0 nM-5.0 nM; C=5.01 nM-10.1 nM; D=10.2 nM-200 nM; E=201 nM→10 uM
A general note: In TR-FRET formats the signal depends on donor and acceptor labels being close together.

Sequence of PD-1/PD-L1 (Q9NZQ7 other isoform, or with tags, fused parts or gaps): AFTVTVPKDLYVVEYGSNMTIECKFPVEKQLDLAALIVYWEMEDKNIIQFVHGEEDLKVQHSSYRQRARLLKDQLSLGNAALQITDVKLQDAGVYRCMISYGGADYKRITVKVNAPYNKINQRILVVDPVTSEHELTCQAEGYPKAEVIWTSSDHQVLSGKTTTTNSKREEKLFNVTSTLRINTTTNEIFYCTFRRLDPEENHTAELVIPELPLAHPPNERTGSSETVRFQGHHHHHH

A word on the IC50: it is the midpoint of a concentration-inhibition curve. As for `COc1cc(OCc2cccc(-c3ccc4oc(C5CCN(c6ccccc6)CC5)nc4c3)c2C)c(Cl)cc1CN1CCCC[C@H]1C(=O)O` [Example 1023, (S)-1-(5-chloro-2-methoxy-4-((2-methyl-3-(2-(1-phenylpiperidin-4-yl)benzo[d]oxazol-5-yl)benzyl)oxy)benzyl)piperidine-2-carboxylic Acid], the IC50 was in the range of 201 to 10000 nM. In the case of `Cc1c(COc2cc(OCc3cncc(C#N)c3)c(CN3CCCC[C@H]3C(=O)O)cc2Cl)cccc1-c1ccc2oc(C3CCN(c4ccccc4)CC3)nc2c1` [Example 1022, (S)-1-(5-chloro-2-((5-cyanopyridin-3-yl)methoxy)-4-((2-methyl-3-(2-(1-phenylpiperidin-4-yl)benzo[d]oxazol-5-yl)benzyl)oxy)benzyl)piperidine-2-carboxylic Acid], the half-maximal inhibitory concentration (IC50) fell in the range of 10.2 to 200 nM. The value for `Cc1c(COc2cc(OCc3cncc(C#N)c3)c(CN(C)[C@@H](CO)C(=O)O)cc2Cl)cccc1-c1ccc2oc(N3CCN(C)CC3)nc2c1` [Example 2016, N-(5-chloro-2-((5-cyanopyridin-3-yl)methoxy)-4-((2-methyl-3-(2-(4-methylpiperazin-1-yl)benzo[d]oxazol-5-yl)benzyl)oxy)benzyl)-N-methyl-L-serine] was 1 to 5 nM. Regarding `Cc1c(COc2cc(OCc3cncc(C#N)c3)c(CN3CCCC[C@H]3C(=O)O)cc2Cl)cccc1-c1ccc2oc(C3CCC(C(=O)O)CC3)nc2c1` (single isomer, unassigned) [Example 1026], the IC50 lay in the range of 201 to 10000 nM.

In the case of `Cc1c(COc2cc(OCc3cncc(C#N)c3)c(CN3CCCC[C@H]3C(=O)O)cc2Cl)cccc1-c1ccc2oc(C3CCN(C)CC3)nc2c1` [Example 1001, (S)-1-(5-chloro-2-((5-cyanopyridin-3-yl)methoxy)-4-((2-methyl-3-(2-(1-methylpiperidin-4-yl)benzo[d]oxazol-5-yl)benzyl)oxy)benzyl)piperidine-2-carboxylic Acid], the IC50 was in the range of 0.18 to 0.99 nM. The value for `Cc1c(COc2cc(OCc3cncc(C#N)c3)c(CN3CCCC[C@H]3C(=O)O)cc2Cl)cccc1-c1ccc2oc(C3CCN(C)CC3)nc2c1C` [Example 1010, (S)-1-(5-chloro-2-((5-cyanopyridin-3-yl)methoxy)-4-((2-methyl-3-(4-methyl-2-(1-methylpiperidin-4-yl)benzo[d]oxazol-5-yl)benzyl)oxy)benzyl)piperidine-2-carboxylic Acid] was 1 to 5 nM; that for `Cc1c(COc2cc(OCc3cncc(C#N)c3)c(CN3CCCC[C@H]3C(=O)O)cc2Cl)cccc1-c1ccc2ncc(C3=CCNCC3)nc2c1` [Example 1030, (S)-1-(5-chloro-2-((5-cyanopyridin-3-yl)methoxy)-4-((2-methyl-3-(3-(1,2,3,6-tetrahydropyridin-4-yl)quinoxalin-6-yl)benzyl)oxy)benzyl)piperidine-2-carboxylic Acid] was 0.18 to 0.99 nM.

`Cc1c(COc2cc(OCc3cncc(C#N)c3)c(CN[C@@H](CO)C(=O)O)cc2Cl)cccc1-c1ccc2oc(N3CCN(C)CC3)nc2c1` [Example 2010, (5-chloro-2-((5-cyanopyridin-3-yl)methoxy)-4-((2-methyl-3-(2-(4-methylpiperazin-1-yl)benzo[d]oxazol-5-yl)benzyl)oxy)benzyl)-L-serine]: the IC50 is 1 to 5 nM.

As to `Cc1c(COc2cc(OCc3cncc(C#N)c3)c(CO)cc2Cl)cccc1-c1ccc2oc(C3CCN(C)CC3)nc2c1` [Example 1021, 5-((4-chloro-2-(hydroxymethyl)-5-((2-methyl-3-(2-(1-methylpiperidin-4-yl)benzo[d]oxazol-5-yl)benzyl)oxy)phenoxy)methyl)nicotinonitrile], the 50% inhibitory concentration (IC50) lay in the range of 5.01 to 10.1 nM. As to `Cc1c(COc2cc(OCc3cncc(C#N)c3)c(CN3CCCC[C@H]3C(=O)O)cc2Cl)cccc1-c1ccc2oc(-c3ccncc3)nc2c1` [Example 1007, (S)-1-(5-chloro-2-((5-cyanopyridin-3-yl)methoxy)-4-((2-methyl-3-(2-(pyridin-4-yl)benzo[d]oxazol-5-yl)benzyl)oxy)benzyl)piperidine-2-carboxylic Acid], the IC50 lay within 1 to 5 nM. Regarding `Cc1c(COc2cc(OCc3cncc(C#N)c3)c(CN[C@](C)(CO)C(=O)O)cc2Cl)cccc1-c1ccc2oc(C3CCN(C)CC3)nc2c1` [Example 1020, (R)-2-((5-chloro-2-((5-cyanopyridin-3-yl)methoxy)-4-((2-methyl-3-(2-(1-methylpiperidin-4-yl)benzo[d]oxazol-5-yl)benzyl)oxy)benzyl)amino)-3-hydroxy-2-methylpropanoic Acid], the IC50 fell in the range of 0.18 to 0.99 nM. On to `Cc1c(COc2cc(OCc3cncc(C#N)c3)c(CN(C)C(CO)CO)cc2Cl)cccc1-c1ccc2oc(N3CCN(C)CC3)nc2c1` [Example 2014], for which the IC50 fell in the range of 1 to 5 nM. For the compound `CCC[C@@H](C(=O)O)N(C)Cc1cc(Cl)c(OCc2cccc(-c3ccc4oc(N5CCN(C)CC5)nc4c3)c2C)cc1OCc1cncc(C#N)c1` [Example 2018, (S)-2-((5-chloro-2-((5-cyanopyridin-3-yl)methoxy)-4-((2-methyl-3-(2-(4-methylpiperazin-1-yl)benzo[d]oxazol-5-yl)benzyl)oxy)benzyl)(methyl)amino)pentanoic Acid], the 50% inhibitory concentration (IC50) is 1 to 5 nM. The value for `Cc1c(COc2cc(OCc3cncc(C#N)c3)c(CN3CCCC[C@H]3C(=O)O)cc2Cl)cccc1-c1ccc2ncc(C3=CC4CCC(C3)N4)nc2c1` (stereo partly drawn) [Example 1029, (2S)-1-(4-((3-(3-(8-Azabicyclo[3.2.1]oct-2-en-3-yl)quinoxalin-6-yl)-2-methylbenzyl)-oxy)-5-chloro-2-((5-cyanopyridin-3-yl)methoxy)benzyl)piperidine-2-carboxylic acid] was 1 to 5 nM.
